Measured values as given in patent US6528251B2, “Method of managing the chemotherapy of patients who are HIV positive based on the phenotypic drug sensitivity of human HIV strains” (Virco N.V., priority 1996, dated 2003).
Where two headings read alike, the source gives them in different places.

How the values were obtained:
Type in all cases: cell-based, HIV-1
[1] = test system: Recombinant wild type HIV strain recIIIB; test: Antiviral MT4/MTT assay with reference virus recIIIB; settings: read-out: Anti-HIV-1 activity IC50 (μM) recIIIB ref (2)
Procedure: (§1) After titration of the new viruses, the stocks were used for antiviral experiments in the presence of serial dilutions of different HIV inhibitors. Titres of the harvested supematants were determined by limited serial dilution titration of virus in MT4 cells.
(§2) Viruses with a useful titre were used in antiviral experiments. For this purpose, 96-well microtitre plates were filled with 100μl of complete culture medium. Subsequently, stock solutions of compounds were added in 25 μl volumes to series of duplicate wells. HIV- and mock-infected cell samples were included for each drug (or drug combination). Exponentially growing MT4 cells were then transferred to the microtitre plates at a density of 150,000 cells/ml. The cell cultures were then incubated at 37° C. in a humidified atmosphere of 5% CO2. Five days after infection, the viability of the mock- and HIV-infected cells was examined spectrophotometrically by the M1T method (Pauwels, R. et al. J. Virol. Meth. (1988), 20: 309-321) as described in Section 6 below.
(§3) To each well of the microtiter plates, 20 μl of a solution of MTT (7.5 mg/ml in PBS) was added. The plates were further incubated at 37° C. for 1 h. Then, 150 μl of medium was removed without disturbing the MT4 cell clusters containing the formazan crystals. Solubilization of the formazan crystals was achieved by adding 100 μl 5% Triton X-100 in acidified isopropanol (5 ml concentrated HCl per liter solvent). Complete dissolution of the formazan crystals was obtained after the plates had been placed on a plate shaker for 10 min. Finally the absorbances were read at two wavelengths (540 and 690 nm). From these optical density (OD) data, 50% inhibitory (IC50) and 50% cytotoxic (CC50) concentrations were derived.

[2] = test system: recombinant virus from patient viral RNA (Example 12); test: Recombinant virus assay (MT4/MTT), patient of Example 12 (therapy history RT and protease inhibitors); settings: for susceptibility of the patient's HIV strain (in words): Example 12 patient, conclusion from Table 8; for IC50: Human immunodeficiency virus 1, Table 8, Example 12 patient virus; for ratio (1)/(2): Table 8, patient mean IC50 / recIIIB IC50, Example 12
Procedure: (§4) RNA was isolated from 100 μl of plasma according to the method described by Boom, R. et al. (1990, supra), and was reverse transcribed with the GeneAmp reverse transcriptase kit (Perkin Elmer) as described by the manufacturer and using an HIV-1 specific downstream primer (OUT3: 5′-CATTGCTCTCCAATTACTGTGATATTTCTCATC-3′; SEQ ID NO: 1). PCR on reverse transcribed RNA was performed with inner and outer primers as described by Kellam, P. and Larder, B. A. (1994, supra). After chloroform extraction and centrifugation on Centricon 100 columns or centrifugation on anion-exchange spin columns (Quiagen), the isolated PCR product was ready for use in the transfection reactions.
(§5) MT4 cells were subcultured at a density of 250,000 cells/ml before transfection (exponential growth phase). Cells were pelleted and resuspended in phosphate buffered saline (PBS) at a concentration of […]. A 0.8 ml portion (2.5 10E6 cells/ml) was used for each transfection. Transfection was performed with the Bio-Rad Gene pulser making use of 0.4 cm electrode cuvettes. Cells were electroporated in the presence of […] of linearised pHIVΔRT plasmid and approximately 5 μg of RT PCR product at 250SF and 300 V, followed by a 30-min incubation at room temperature. Subsequently, 10 ml of fresh culture medium was added to the cell suspension and incubation was performed at 37° C. in a humidified atmosphere of 5% CO2.
(§6) During 7 to 10 days following the transfection, cells were monitored for the appearance of cytopathogenic effect (CPE). In the absence thereof, cells were subcultured in different flasks. Subsequently, culture supernatants of transfected cells were used to create a stock of recombinant virus and stored in 1.5 ml aliquots at −70° C.
as §1, §2, §3
(§7) An HIV infected patient with a therapy history including RT and protease inhibitors donated plasma whose susceptibility to a number of RT inhibitors and protease inhibitors was determined according to the protocol set out in Example 1.

[3] = test system: recombinant virus from patient viral RNA (Example 10, drug-naive patient); test: Recombinant virus assay (MT4/MTT), drug-naive patient of Example 10; settings: for IC50: Human immunodeficiency virus 1, Table 6, Example 10 patient virus; for ratio (1)/(2): Table 6, patient mean IC50 / recIIIB IC50, Example 10
Procedure: as §4, §5, §6, §1, §2, §3
A drug-naive HIV-infected patient donated plasma whose susceptibility to a number of RT inhibitors and protease inhibitors was determined according to the protocol set out in Example 1. Recombinant wild type HIV strain recIIIB was used as a reference HIV virus.

[4] = test system: recombinant virus from patient viral RNA (Example 11); test: Recombinant virus assay (MT4/MTT), patient of Example 11 (therapy history RT and protease inhibitors); settings: for susceptibility of the patient's HIV strain (in words): Example 11 patient, conclusion from Table 7; for IC50: Human immunodeficiency virus 1, Table 7, Example 11 patient virus; for ratio (1)/(2): Table 7, patient mean IC50 / recIIIB IC50, Example 11
Procedure: as §4, §5, §6, §1, §2, §3
as §7, with “1. Recombinant wild type HIV strain recIIIb was used as a reference HIV virus.” for “1.”

[5] = test system: recombinant virus from patient viral RNA (Example 8); test: Recombinant virus assay (MT4/MTT), patient of Example 8 (therapy history AZT, 3TC and loviride); settings: for IC50: Human immunodeficiency virus 1, Table 4, Example 8 patient virus; for ratio (1)/(2): Table 4, patient mean IC50 / recIIIB IC50, Example 8
Procedure: as §4, §5, §6, §1, §2, §3
(§8) An HIV-infected patient with a therapy history including AZT, 3TC and loviride donated plasma whose susceptibility to a number of RT inhibitors was determined according to the protocol set out in Example 1. Recombinant wild type HIV strain recIIIB was used as a reference HIV virus.

[6] = test system: recombinant virus from patient viral RNA (Example 5, 3TC resistant HIV strains); test: Recombinant virus assay (MT4/MTT), patient of Example 5 (AZT, then AZT+3TC therapy); settings: for IC50: Human immunodeficiency virus 1, Table 1, Example 5 patient virus; for ratio (1)/(2): Table 1, patient mean IC50 / recIIIB IC50, Example 5
Procedure: as §4, §5, §6, §1, §2, §3
An HIV infected patient who received AZT from December 1989 until an undocumented later date, and switched to a combined chemotherapy of AZT+3TC (1:1) from February 1994 until October 1995 donated plasma whose susceptibility to a number of RT inhibitors was determined according to the above described protocol of Example 1. Recombinant wild type HIV strain recIIIB was used in said protocol as a reference HIV virus.

[7] = test system: recombinant virus from patient viral RNA (Example 7, drug-naive patient); test: Recombinant virus assay (MT4/MTT), drug-naive patient of Example 7; settings: for IC50: Human immunodeficiency virus 1, Table 3, Example 7 patient virus; for ratio (1)/(2): Table 3, patient mean IC50 / recIIIB IC50, Example 7
Procedure: as §4, §5, §6, §1, §2, §3
A drug-naive HIV-infected patient donated plasma whose susceptibility to a number of RT inhibitors was determined according to the protocol set out in Example 1. Recombinant wild type HIV strain recIIIB was used as a reference HIV virus.

[8] = test system: recombinant virus from patient viral RNA (Example 9); test: Recombinant virus assay (MT4/MTT), patient of Example 9 (multiple nucleoside analogue RT-inhibitors); settings: for IC50: Human immunodeficiency virus 1, Table 5, Example 9 patient virus; for ratio (1)/(2): Table 5, patient mean IC50 / recIIIB IC50, Example 9
Procedure: as §4, §5, §6, §1, §2, §3
as §8, with “multiple nucleoside analogue RT-inhibitors” for “AZT, 3TC and loviride”

[9] = Human immunodeficiency virus 1, Table 6, reference run of Example 10
[10] = Human immunodeficiency virus 1, Table 7, reference run of Example 11
[11] = Human immunodeficiency virus 1, Table 8, reference run of Example 12
[12] = MT4 cells, read-out: Anti-HIV-1 activity IC50 (μM) Exp. 1
[13] = mean, read-out: Anti-HIV-1 activity IC50 (μM) Mean (1)
[14] = MT4 cells, read-out: Anti-HIV-1 activity IC50 (μM) Exp. 2
[15] = Human immunodeficiency virus 1, Table 1, reference run of Example 5
[16] = Human immunodeficiency virus 1, Table 3, reference run of Example 7
[17] = Human immunodeficiency virus 1, Table 4, reference run of Example 8
[18] = Human immunodeficiency virus 1, Table 5, reference run of Example 9
[19] = mean of Exp. 1 and 2, read-out: Anti-HIV-1 activity IC50 (μM) Mean (1)

| SMILES | IC50 [1, 9] | IC50 [1, 10] | IC50 [1, 11] | susceptibility of the patient's HIV strain (in words) [2] | IC50 [2, 12] | IC50 [2, 13] | ratio (1)/(2) [2] | IC50 [3, 12] | IC50 [3, 14] | IC50 [3, 13] | ratio (1)/(2) [3] | susceptibility of the patient's HIV strain (in words) [4] | IC50 [4, 12] | IC50 [4, 14] | IC50 [4, 13] | ratio (1)/(2) [4] | IC50 [1, 15] | IC50 [1, 16] | IC50 [1, 17] | IC50 [1, 18] | other results |
| --- | --- | --- | --- | --- | --- | --- | --- | --- | --- | --- | --- | --- | --- | --- | --- | --- | --- | --- | --- | --- | --- |
| CC(C)(C)NC(=O)[C@@H]1CN(Cc2cccnc2)CCN1C[C@@H](O)C[C@@H](Cc1ccccc1)C(=O)N[C@H]1c2ccccc2C[C@H]1O [indinavir] | 0.016 µM | 0.027 µM | 0.016 µM | decreased susceptibility | 0.124 µM | 0.124 µM | 8 | 0.013 µM | 0.013 µM | 0.013 µM | 0.8 | decreased susceptibilty | 0.229 µM | 0.416 µM | 0.323 µM | 12 | – | – | – | – | – |
| CC(=O)c1ccc(C)cc1NC(C(N)=O)c1c(Cl)cccc1Cl (stereo not shown) [loviride] | – | – | – | – | – | – | – | – | – | – | – | – | – | – | – | – | 0.05 µM | 0.024 µM | 0.037 µM | 0.065 µM | IC50 [5, 12]: > 100 µM; IC50 [5, 14]: > 100 µM; IC50 [5, 13]: > 100 µM; ratio (1)/(2) [5]: >2717; IC50 [6, 12]: 0.1 µM; IC50 [6, 14]: 0.12 µM; IC50 [6, 19]: 0.11 µM; ratio (1)/(2) [6]: 2; IC50 [7, 12]: 0.035 µM; IC50 [7, 14]: 0.025 µM; IC50 [7, 13]: 0.03 µM; ratio (1)/(2) [7]: 1; IC50 [8, 12]: 0.064 µM; IC50 [8, 14]: 0.058 µM; IC50 [8, 13]: 0.061 µM; ratio (1)/(2) [8]: 0.9 |
| CC(C)c1nc(CN(C)C(=O)N[C@H](C(=O)N[C@@H](Cc2ccccc2)C[C@H](O)[C@H](Cc2ccccc2)NC(=O)OCc2cncs2)C(C)C)cs1 [ritonavir] | 0.033 µM | 0.062 µM | 0.033 µM | decreased susceptibility | 1.61 µM | 1.57 µM | 47 | 0.022 µM | 0.017 µM | 0.019 µM | 0.6 | decreased susceptibilty | 1.2 µM | 1.74 µM | 1.47 µM | 24 | – | – | – | – | IC50 [2, 14]: 1.53 µM |
| CC(C)=CCN1Cc2c(Cl)ccc3[nH]c(=S)n(c23)C[C@@H]1C [tivirapine] | – | – | – | – | – | – | – | – | – | – | – | – | – | – | – | – | 0.01 µM | 0.021 µM | 0.021 µM | 0.042 µM | IC50 [5, 12]: 1.63 µM; IC50 [5, 14]: 1.6 µM; IC50 [5, 13]: 1.61 µM; ratio (1)/(2) [5]: 78; IC50 [6, 12]: 0.019 µM; IC50 [6, 14]: 0.018 µM; IC50 [6, 19]: 0.019 µM; ratio (1)/(2) [6]: 1.5; IC50 [7, 12]: 0.042 µM; IC50 [7, 14]: 0.049 µM; IC50 [7, 13]: 0.046 µM; ratio (1)/(2) [7]: 2; IC50 [8, 12]: 0.052 µM; IC50 [8, 14]: 0.043 µM; IC50 [8, 13]: 0.048 µM; ratio (1)/(2) [8]: 1 |
